From the supplement of paper PMC10307832

Assays:
Assay in all cases: relative viability (nuclei count vs DMSO), 5 days (fraction); higher = more cells survive
Entinostat + Lapatinib = compound: Nc1ccccc1NC(=O)c1ccc(CNC(=O)OCc2cccnc2)cc1 [Entinostat] + CS(=O)(=O)CCNCc1ccc(-c2ccc3ncnc(Nc4ccc(OCc5cccc(F)c5)c(Cl)c4)c3c2)o1 [Lapatinib] (partner 2 µM)
In short: (§1)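 For relative viability, nuclei counts in treated wells were divided by those in vehicle wells. Lung cancer cell lines had been pin-tool dosed in 1536-well plates the day after seeding and cultured for 5 days, then fixed and stained in one step (final 0.05% Triton X-100, 1% formaldehyde, 1 ug/ml Hoechst) and imaged at 4×. Doses were one drug alone or a fixed anchor-drug dose plus five library-drug doses (not always all listed) in √10 steps, and values are duplicate-plate medians.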

[1] = compound: C1COCCN1C2=NC(=NC3=C2OC4=C3C=CC=N4)C5=CC(=CC=C5)NC(=O)C6=CN=C(C=C6)N + Nc1ncn([C@H]2C[C@H](O)[C@@H](CO)O2)c(=O)n1 [Decitabine] (partner 2 µM)
In short: as §1

[2] = compound: C1COCCN1C2=NC(=NC3=C2OC4=C3C=CC=N4)C5=CC(=CC=C5)NC(=O)C6=CN=C(C=C6)N + N=C(N)NC(=N)NCCc1ccccc1 [Phenformin] (partner 250 µM)
In short: as §1

SGI-1776 + Alpelisib = compound: CN1CCC(CNc2ccc3ncc(-c4cccc(OC(F)(F)F)c4)n3n2)CC1 [SGI-1776] + Cc1nc(NC(=O)N2CCC[C@H]2C(N)=O)sc1-c1ccnc(C(C)(C)C(F)(F)F)c1 [Alpelisib] (partner 2 µM)
In short: as §1

Cell Line | relative viability (Entinostat + Lapatinib; first compound 0.02 µM) | relative viability (Entinostat + Lapatinib; first compound 0.06325 µM) | relative viability (Entinostat + Lapatinib; first compound 0.2 µM) | relative viability (Entinostat + Lapatinib; first compound 0.6325 µM) | relative viability (Entinostat + Lapatinib; first compound 2 µM) | relative viability ([1]; first compound 0.02 µM) | relative viability ([1]; first compound 0.06325 µM) | relative viability ([1]; first compound 0.2 µM) | relative viability ([1]; first compound 0.6325 µM) | relative viability ([1]; first compound 2 µM) | relative viability ([2]; first compound 0.02 µM) | relative viability ([2]; first compound 0.06325 µM) | relative viability ([2]; first compound 0.2 µM) | relative viability ([2]; first compound 0.6325 µM) | relative viability ([2]; first compound 2 µM) | relative viability (SGI-1776 + Alpelisib; first compound 0.08 µM) | relative viability (SGI-1776 + Alpelisib; first compound 0.8 µM) | relative viability (SGI-1776 + Alpelisib; first compound 2.53 µM) | relative viability (SGI-1776 + Alpelisib; first compound 8 µM)
NCI-H1734 | 1.16 | 1.11 | 1.05 | 0.787 | 0.481 | 0.534 | 0.575 | 0.482 | 0.537 | 0.484 | 0.372 | 0.387 | 0.371 | 0.338 | 0.251 | 0.69 | 0.798 | 0.733 | 0.559
LXF-289 | 0.884 | 0.916 | 0.841 | 0.647 | 0.481 | 0.36 | 0.438 | 0.329 | 0.457 | 0.409 | 0.523 | 0.536 | 0.541 | 0.49 | 0.383 | 1 | 1.06 | 1.03 | 1
PC-3 [JPC-3] | 0.448 | 0.451 | 0.397 | 0.348 | 0.302 | 0.846 | 0.8 | – | 0.843 | 0.755 | 0.485 | 0.491 | 0.453 | 0.469 | 0.443 | 1.1 | 0.946 | 1.06 | 0.971
NCI-H2087 | 1.03 | 0.792 | 0.861 | 0.536 | 0.54 | 0.267 | 0.281 | 0.255 | 0.332 | 0.211 | 0.515 | 0.595 | 0.495 | 0.447 | 0.31 | 1.1 | 1.06 | 1.18 | 0.997
NCI-H2170 | 0.289 | 0.3 | 0.304 | 0.244 | 0.216 | 0.493 | 0.488 | 0.48 | 0.551 | 0.506 | 0.427 | 0.439 | 0.408 | 0.407 | 0.388 | 0.858 | 0.835 | 0.697 | 0.635
HCC-78 | 0.829 | 0.702 | 0.33 | 0.169 | 0.169 | 0.69 | 0.78 | 0.671 | 0.961 | 0.777 | 0.716 | 0.654 | 0.761 | 0.681 | 0.642 | 0.37 | 0.333 | 0.315 | 0.248
NCI-H1395 | 1.1 | 1.21 | 0.901 | 0.566 | 0.569 | 0.719 | 0.672 | 0.75 | 0.788 | 0.849 | 0.396 | 0.451 | 0.461 | 0.415 | 0.384 | 1.09 | 1.02 | 0.996 | 0.631
H3255 | 0.21 | 0.309 | 0.161 | 0.145 | 0.156 | 0.577 | 0.575 | 0.599 | 0.798 | 0.559 | 0.362 | 0.357 | 0.368 | 0.326 | 0.338 | 0.65 | 0.747 | 0.611 | 0.38
HCC-15 | 0.866 | 0.779 | 0.726 | 0.345 | 0.288 | 0.606 | 0.646 | 0.608 | 0.691 | 0.429 | 0.546 | 0.528 | 0.462 | 0.388 | 0.25 | 0.912 | 0.836 | 0.895 | 0.71
NCI-H727 | 0.941 | 0.804 | 0.793 | 0.533 | 0.451 | 0.884 | 0.851 | 0.785 | 1 | 0.862 | 0.441 | 0.629 | 0.502 | 0.469 | 0.458 | 0.75 | 0.532 | 0.655 | 0.538
NCI-H2023 | 0.633 | 0.585 | 0.261 | 0.129 | 0.0771 | 0.248 | 0.246 | 0.23 | 0.325 | 0.191 | 0.424 | 0.457 | 0.346 | 0.32 | 0.156 | 0.595 | 0.546 | 0.546 | 0.414
HCC-44 | 1 | 0.88 | 0.7 | 0.258 | 0.311 | 0.892 | 0.93 | 1.01 | 0.929 | 0.989 | 0.182 | 0.191 | 0.137 | 0.157 | 0.171 | 0.88 | 0.876 | 0.733 | 0.571
COR-L23 | 0.967 | 0.995 | 0.905 | 0.579 | 0.176 | 0.478 | 0.502 | 0.469 | 0.602 | 0.389 | 0.426 | 0.445 | 0.418 | 0.433 | 0.218 | 0.935 | 0.697 | 0.743 | 0.521
EMC-BAC-2 | 0.873 | 0.956 | 0.901 | 0.682 | 0.499 | 0.96 | 1.06 | 0.947 | 0.953 | 0.779 | 0.543 | 0.56 | 0.451 | 0.469 | 0.304 | 0.741 | 0.703 | 0.802 | 0.723
LCLC-97TM1 | 0.942 | 1.21 | 0.784 | 0.41 | 0.326 | 0.286 | 0.236 | 0.241 | 0.333 | 0.236 | 0.446 | 0.475 | 0.409 | 0.452 | 0.419 | 0.195 | 0.238 | 0.239 | 0.22
LK-2 | 0.98 | 1.05 | 1.01 | 0.476 | 0.459 | 0.306 | 0.267 | 0.256 | 0.259 | 0.243 | 0.538 | 0.551 | 0.249 | 0.2 | 0.252 | 0.93 | 1.06 | 0.829 | 0.793
NCI-H3122 | 1.02 | 1.07 | 1.09 | 0.917 | 0.893 | 0.391 | 0.354 | 0.366 | 0.487 | 0.322 | 0.619 | 0.359 | 0.347 | 0.372 | 0.343 | 0.707 | 0.837 | 0.868 | 0.757
